These results are taken from patent US8471005B2 (Cephalon, Inc., priority 2008, dated 2013).

Some results are limits rather than exact numbers.

One assay deals with T1, JAK2 (Homo sapiens, UniProt O60674).
T1 construct: host or cells: baculovirus expression system
Put plainly: Recombinant Human JAK2 Kinase Assay (TRF). The format is biochemical. The following applies: JAK2 kinase inhibition, 0.2 μM ATP; read-out: JAK2 Potency. Summed up: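 Kinase activity of baculovirus-expressed JAK2 is followed on a surface-immobilised biotinylated peptide, with the reaction run for 20 min at room temperature in buffer containing 0.2 μM ATP and manganese. Phosphorylation is read with Eu-N1 PY100 antibody.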

Another assay deals with T2, ALK (Homo sapiens, UniProt Q9UM73).
T2 construct: host or cells: baculovirus expression system
T2 sequence (Q9UM73 19-1620): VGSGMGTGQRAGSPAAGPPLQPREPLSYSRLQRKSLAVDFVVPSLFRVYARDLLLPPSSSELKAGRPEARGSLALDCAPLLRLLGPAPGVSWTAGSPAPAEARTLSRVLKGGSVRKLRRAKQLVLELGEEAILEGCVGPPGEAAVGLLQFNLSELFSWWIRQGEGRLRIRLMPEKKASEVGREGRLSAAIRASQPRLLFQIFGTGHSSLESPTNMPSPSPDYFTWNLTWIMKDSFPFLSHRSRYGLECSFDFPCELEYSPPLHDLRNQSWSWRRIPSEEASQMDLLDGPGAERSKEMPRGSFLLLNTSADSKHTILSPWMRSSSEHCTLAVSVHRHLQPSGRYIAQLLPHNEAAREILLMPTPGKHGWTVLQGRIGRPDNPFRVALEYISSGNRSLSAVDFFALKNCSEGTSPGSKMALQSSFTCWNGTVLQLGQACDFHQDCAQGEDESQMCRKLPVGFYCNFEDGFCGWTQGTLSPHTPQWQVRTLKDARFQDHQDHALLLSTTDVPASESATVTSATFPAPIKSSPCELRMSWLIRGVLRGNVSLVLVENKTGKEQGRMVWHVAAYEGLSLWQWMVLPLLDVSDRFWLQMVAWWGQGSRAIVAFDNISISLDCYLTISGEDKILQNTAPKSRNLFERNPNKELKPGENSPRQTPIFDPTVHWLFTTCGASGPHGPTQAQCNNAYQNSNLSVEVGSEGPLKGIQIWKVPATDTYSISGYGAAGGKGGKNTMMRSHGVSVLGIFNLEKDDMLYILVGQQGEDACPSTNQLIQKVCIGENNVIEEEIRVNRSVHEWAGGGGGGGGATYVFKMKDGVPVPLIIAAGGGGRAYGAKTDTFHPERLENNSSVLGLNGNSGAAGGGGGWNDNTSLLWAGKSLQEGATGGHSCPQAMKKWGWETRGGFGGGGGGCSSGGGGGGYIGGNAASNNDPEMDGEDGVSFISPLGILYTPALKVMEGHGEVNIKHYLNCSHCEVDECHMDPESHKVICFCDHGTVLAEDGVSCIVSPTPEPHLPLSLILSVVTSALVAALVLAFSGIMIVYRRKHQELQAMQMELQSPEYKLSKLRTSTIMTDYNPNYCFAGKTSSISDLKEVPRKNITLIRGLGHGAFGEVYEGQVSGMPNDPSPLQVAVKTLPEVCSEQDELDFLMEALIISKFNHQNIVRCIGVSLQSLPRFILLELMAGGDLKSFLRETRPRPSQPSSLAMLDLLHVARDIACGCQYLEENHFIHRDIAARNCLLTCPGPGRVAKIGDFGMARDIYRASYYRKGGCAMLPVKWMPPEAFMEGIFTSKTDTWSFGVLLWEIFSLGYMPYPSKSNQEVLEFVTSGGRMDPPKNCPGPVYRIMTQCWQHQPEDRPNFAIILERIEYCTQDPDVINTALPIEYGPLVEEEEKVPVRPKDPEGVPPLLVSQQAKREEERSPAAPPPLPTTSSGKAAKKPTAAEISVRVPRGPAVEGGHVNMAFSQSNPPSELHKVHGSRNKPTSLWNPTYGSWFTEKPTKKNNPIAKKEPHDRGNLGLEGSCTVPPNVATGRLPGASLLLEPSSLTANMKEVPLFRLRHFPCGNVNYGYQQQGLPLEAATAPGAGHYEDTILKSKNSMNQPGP
Nature of the assay: ALK Kinase Assay (ELISA/TRF, PLC-γ substrate). The following applies: ALK kinase inhibition, 1 μM ATP; read-out: ALK Potency. The format is biochemical. A digest of the protocol: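 Time-resolved fluorescence ELISA using Eu-N1 PT66 antibody to detect phosphorylated PLC-γ (coated at 10 μg/mL). Enzyme at 30 ng/ml ALK; 15 min incubation, 37° C.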
On the technique in general: An ELISA detects its analyte on a solid surface through an enzyme-linked reagent.

T1 sequence (O60674 whole entry): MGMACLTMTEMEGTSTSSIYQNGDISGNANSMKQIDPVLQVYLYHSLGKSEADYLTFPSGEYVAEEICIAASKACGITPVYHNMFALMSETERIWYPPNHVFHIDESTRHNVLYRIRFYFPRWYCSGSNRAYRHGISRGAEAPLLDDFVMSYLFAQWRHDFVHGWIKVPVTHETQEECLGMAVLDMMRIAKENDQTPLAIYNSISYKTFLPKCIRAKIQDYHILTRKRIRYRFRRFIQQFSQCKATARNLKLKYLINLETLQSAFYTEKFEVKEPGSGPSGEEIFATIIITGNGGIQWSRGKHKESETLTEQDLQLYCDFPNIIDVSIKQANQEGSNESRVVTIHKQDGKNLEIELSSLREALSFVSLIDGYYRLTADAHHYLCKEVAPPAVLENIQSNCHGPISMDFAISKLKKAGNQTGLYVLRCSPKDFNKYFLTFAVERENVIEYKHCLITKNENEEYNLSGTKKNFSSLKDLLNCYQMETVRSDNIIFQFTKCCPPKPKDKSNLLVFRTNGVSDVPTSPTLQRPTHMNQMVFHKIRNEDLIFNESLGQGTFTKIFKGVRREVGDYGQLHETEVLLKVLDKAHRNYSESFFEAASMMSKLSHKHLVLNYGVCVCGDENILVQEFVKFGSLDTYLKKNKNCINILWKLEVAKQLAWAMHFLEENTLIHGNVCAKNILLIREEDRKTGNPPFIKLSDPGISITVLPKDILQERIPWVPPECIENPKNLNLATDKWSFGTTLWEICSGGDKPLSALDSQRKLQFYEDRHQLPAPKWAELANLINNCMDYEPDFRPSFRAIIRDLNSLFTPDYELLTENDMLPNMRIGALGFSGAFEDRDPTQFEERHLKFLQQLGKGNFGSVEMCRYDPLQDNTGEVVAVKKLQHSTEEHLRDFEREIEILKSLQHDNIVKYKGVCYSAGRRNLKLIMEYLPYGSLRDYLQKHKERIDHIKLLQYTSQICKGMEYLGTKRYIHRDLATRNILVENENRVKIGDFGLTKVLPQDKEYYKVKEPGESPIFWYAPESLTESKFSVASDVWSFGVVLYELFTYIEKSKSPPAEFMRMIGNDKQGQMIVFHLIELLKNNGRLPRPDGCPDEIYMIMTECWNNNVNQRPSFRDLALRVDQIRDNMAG

Turning to `CC(C)(C)NS(=O)(=O)c1cccc(-c2ccc3cnc(Nc4ccc5ncn(CCN6CCOCC6)c5c4)nn23)c1` [Example 1326, N-tert-Butyl-3-{2-[3-(2-morpholin-4-yl-ethyl)-3H-benzimidazol-5-ylamino]-pyrrolo[2,1-f][1,2,4]triazin-7-yl}-benzenesulfonamide], the IC50 at JAK2 is < 0.1 µM; on ALK, 0.1 to 1 µM.

In the case of `CC(C)(C)NS(=O)(=O)c1cccc(-c2ccc3cnc(Nc4ccc5cn[nH]c5c4)nn23)c1` [Example 1327, N-tert-Butyl-3-[2-(1H-indazol-6-ylamino)-pyrrolo[2,1-f][1,2,4]triazin-7-yl]-benzenesulfonamide], the IC50 on JAK2 was < 0.1 µM; at ALK, 1 to 10 µM.

In the case of `CCc1nc2ccc(Nc3ncc4ccc(-c5cccc(S(=O)(=O)NC(C)(C)C)c5)n4n3)cc2[nH]1` [Example 1328, N-tert-Butyl-3-[2-(2-ethyl-3H-benzimidazol-5-ylamino)-pyrrolo[2,1-f][1,2,4]triazin-7-yl]-benzenesulfonamide], the results for the IC50 on JAK2 and on ALK were < 0.1 µM and 0.1 to 1 µM, respectively.

Take `CC(C)c1nc2ccc(Nc3ncc4ccc(-c5cccc(S(=O)(=O)NC(C)(C)C)c5)n4n3)cc2[nH]1` [Example 1329, N-tert-Butyl-3-[2-(2-isopropyl-3H-benzimidazol-5-ylamino)-pyrrolo[2,1-f][1,2,4]triazin-7-yl]-benzenesulfonamide]: the IC50 on JAK2 is < 0.1 µM; on ALK, 1 to 10 µM.

As for `CC(C)(C)NS(=O)(=O)c1cccc(-c2ccc3cnc(Nc4ccc5nc(C(C)(C)C)[nH]c5c4)nn23)c1` [Example 1330, N-tert-Butyl-3-[2-(2-tert-butyl-3H-benzimidazol-5-ylamino)-pyrrolo[2,1-f][1,2,4]triazin-7-yl]-benzenesulfonamide], the IC50 was < 0.1 µM at JAK2 and 1 to 10 µM on ALK.

In the case of `Cc1nc2ccc(Nc3ncc4ccc(-c5cccc(S(=O)(=O)NC(C)(C)C)c5)n4n3)cc2n1C` [Example 1331, N-tert-Butyl-3-[2-(2,3-dimethyl-3H-benzimidazol-5-ylamino)-pyrrolo[2,1-f][1,2,4]triazin-7-yl]-benzenesulfonamide], the figures for the IC50 at JAK2 and on ALK were < 0.1 µM and 0.1 to 1 µM, respectively.

Regarding `Cn1cnc2cc(Nc3ncc4ccc(-c5cccc(S(=O)(=O)NC(C)(C)C)c5)n4n3)ccc21` [Example 1332, N-tert-Butyl-3-[2-(1-methyl-1H-benzimidazol-5-ylamino)-pyrrolo[2,1-f][1,2,4]triazin-7-yl]-benzenesulfonamide], the IC50 is < 0.1 µM at JAK2 and > 10 µM at ALK.

Regarding `CN(c1ccccc1-c1ccc2cnc(Nc3ccc4c(cnn4CCN4CCOCC4)c3)nn12)S(C)(=O)=O` [Example 1333, N-Methyl-N-(2-{2-[1-(2-morpholin-4-yl-ethyl)-1H-indazol-5-ylamino]-pyrrolo[2,1-f][1,2,4]triazin-7-yl}-phenyl)-methanesulfonamide], the IC50 was < 0.1 µM at JAK2 and 0.1 to 1 µM on ALK.

With `CN(c1ccccc1-c1ccc2cnc(Nc3ccc4cnn(CCN5CCOCC5)c4c3)nn12)S(C)(=O)=O` [Example 1334, N-Methyl-N-(2-{2-[1-(2-morpholin-4-yl-ethyl)-1H-indazol-6-ylamino]-pyrrolo[2,1-f][1,2,4]triazin-7-yl}-phenyl)-methanesulfonamide], the IC50 on JAK2 was < 0.1 µM; on ALK, 1 to 10 µM.

For `CN(c1ccccc1-c1ccc2cnc(Nc3ccc4c(c3)ncn4CCN3CCOCC3)nn12)S(C)(=O)=O` [Example 1335, N-Methyl-N-(2-{2-[1-(2-morpholin-4-yl-ethyl)-1H-benzimidazol-5-ylamino]-pyrrolo[2,1-f][1,2,4]triazin-7-yl}-phenyl)-methanesulfonamide], the IC50 is < 0.1 µM on JAK2 and 0.1 to 1 µM on ALK.

Take `CN(c1ccccc1-c1ccc2cnc(Nc3ccc4ncn(CCN5CCOCC5)c4c3)nn12)S(C)(=O)=O` [Example 1336, N-Methyl-N-(2-{2-[3-(2-morpholin-4-yl-ethyl)-3H-benzimidazol-5-ylamino]-pyrrolo[2,1-f][1,2,4]triazin-7-yl}-phenyl)-methanesulfonamide]: the results for the IC50 at JAK2 and on ALK were < 0.1 µM and 1 to 10 µM, respectively.

Consider `CN(c1ccccc1-c1ccc2cnc(Nc3ccc4cn[nH]c4c3)nn12)S(C)(=O)=O` [Example 1337, N-{2-[2-(1H-Indazol-6-ylamino)-pyrrolo[2,1-f][1,2,4]triazin-7-yl]-phenyl}-N-methyl-methanesulfonamide], for which the IC50 on JAK2 is < 0.1 µM; on ALK, 0.1 to 1 µM.

In the case of `CN(c1ccccc1-c1ccc2cnc(Nc3ccc4[nH]ncc4c3)nn12)S(C)(=O)=O` [Example 1338, N-{2-[2-(1H-Indazol-5-ylamino)-pyrrolo[2,1-f][1,2,4]triazin-7-yl]-phenyl}-N-methyl-methanesulfonamide], the IC50 on JAK2 was < 0.1 µM; on ALK, 0.1 to 1 µM.

In the case of `CN(c1ccccc1-c1ccc2cnc(Nc3ccc4c(cnn4C)c3)nn12)S(C)(=O)=O` [Example 1339, N-Methyl-N-{2-[2-(1-methyl-1H-indazol-5-ylamino)-pyrrolo[2,1-f][1,2,4]triazin-7-yl]-phenyl}-methanesulfonamide], the IC50 at JAK2 is < 0.1 µM; on ALK it was 0.1 to 1 µM.

As for `CN(c1ccccc1-c1ccc2cnc(Nc3ccc4cnn(C)c4c3)nn12)S(C)(=O)=O` [Example 1340, N-Methyl-N-{2-[2-(1-methyl-1H-indazol-6-ylamino)-pyrrolo[2,1-f][1,2,4]triazin-7-yl]-phenyl}-methanesulfonamide], the IC50 on JAK2 is < 0.1 µM; on ALK, 0.1 to 1 µM.

Consider `CN(c1ccccc1-c1ccc2cnc(Nc3ccc4nc(C(C)(C)C)[nH]c4c3)nn12)S(C)(=O)=O` [Example 1341, N-{2-[2-(2-tert-Butyl-3H-benzimidazol-5-ylamino)-pyrrolo[2,1-f][1,2,4]triazin-7-yl]-phenyl}-N-methyl-methanesulfonamide], for which the IC50 is < 0.1 µM at JAK2 and 0.1 to 1 µM on ALK.

In the case of `CN(c1ccccc1-c1ccc2cnc(Nc3ccc4cn(CCN5CCOCC5)nc4c3)nn12)S(C)(=O)=O` [Example 1342, N-Methyl-N-(2-{2-[2-(2-morpholin-4-yl-ethyl)-2H-indazol-6-ylamino]-pyrrolo[2,1-f][1,2,4]triazin-7-yl}-phenyl)-methanesulfonamide], the IC50 is < 0.1 µM at JAK2 and 0.1 to 1 µM at ALK.

As for `CN(c1ccccc1-c1ccc2cnc(Nc3ccc4nn(CCN5CCOCC5)cc4c3)nn12)S(C)(=O)=O` [Example 1343, N-Methyl-N-(2-{2-[2-(2-morpholin-4-yl-ethyl)-2H-indazol-5-ylamino]-pyrrolo[2,1-f][1,2,4]triazin-7-yl}-phenyl)-methanesulfonamide], the IC50 at JAK2 and on ALK was < 0.1 µM in each case.

Regarding `CC(C)(C)NS(=O)(=O)c1cccc(-c2ccc3cnc(Nc4ccc5cn(CCN6CCOCC6)nc5c4)nn23)c1` [Example 1344, N-tert-Butyl-3-{2-[2-(2-morpholin-4-yl-ethyl)-2H-indazol-6-ylamino]-pyrrolo[2,1-f][1,2,4]triazin-7-yl}-benzenesulfonamide], the figures for the IC50 at JAK2 and on ALK were < 0.1 µM and 0.1 to 1 µM, respectively.

Take `CC(C)(C)NS(=O)(=O)c1cccc(-c2ccc3cnc(Nc4ccc5nn(CCN6CCOCC6)cc5c4)nn23)c1` [Example 1345, N-tert-Butyl-3-{2-[2-(2-morpholin-4-yl-ethyl)-2H-indazol-5-ylamino]-pyrrolo[2,1-f][1,2,4]triazin-7-yl}-benzenesulfonamide]: the values for the IC50 on JAK2 and at ALK were < 0.1 µM and 0.1 to 1 µM, respectively.

Consider `COc1ccccc1-c1ccc2cnc(Nc3ccc4c(cnn4CCN4CCOCC4)c3)nn12` [Example 1346, [7-(2-Methoxy-phenyl)-pyrrolo[2,1-f][1,2,4]triazin-2-yl]-[1-(2-morpholin-4-yl-ethyl)-1H-indazol-5-yl]-amine], for which the IC50 at JAK2 is < 0.1 µM; at ALK, 0.1 to 1 µM.

For the molecule `COc1ccccc1-c1ccc2cnc(Nc3ccc4cnn(CCN5CCOCC5)c4c3)nn12` [Example 1347, [7-(2-Methoxy-phenyl)-pyrrolo[2,1-f][1,2,4]triazin-2-yl]-[1-(2-morpholin-4-yl-ethyl)-1H-indazol-6-yl]-amine], the IC50 on JAK2 is < 0.1 µM; on ALK, 1 to 10 µM.

As for `COc1ccccc1-c1ccc2cnc(Nc3ccc4c(c3)ncn4CCN3CCOCC3)nn12` [Example 1348, [7-(2-Methoxy-phenyl)-pyrrolo[2,1-f][1,2,4]triazin-2-yl]-[1-(2-morpholin-4-yl-ethyl)-1H-benzimidazol-5-yl]-amine], the IC50 was < 0.1 µM on JAK2 and 0.1 to 1 µM at ALK.

Take `COc1ccccc1-c1ccc2cnc(Nc3ccc4ncn(CCN5CCOCC5)c4c3)nn12` [Example 1349, [7-(2-Methoxy-phenyl)-pyrrolo[2,1-f][1,2,4]triazin-2-yl]-[3-(2-morpholin-4-yl-ethyl)-3H-benzimidazol-5-yl]-amine]: the IC50 is < 0.1 µM at JAK2 and 0.1 to 1 µM at ALK.

With `COc1ccccc1-c1ccc2cnc(Nc3ccc4cn(CCN5CCOCC5)nc4c3)nn12` [Example 1350, [7-(2-Methoxy-phenyl)-pyrrolo[2,1-f][1,2,4]triazin-2-yl]-[2-(2-morpholin-4-yl-ethyl)-2H-indazol-6-yl]-amine], the values for the IC50 at JAK2 and at ALK were < 0.1 µM and 1 to 10 µM, respectively.

As to `COc1ccccc1-c1ccc2cnc(Nc3ccc4nn(CCN5CCOCC5)cc4c3)nn12` [Example 1351, [7-(2-Methoxy-phenyl)-pyrrolo[2,1-f][1,2,4]triazin-2-yl]-[2-(2-morpholin-4-yl-ethyl)-2H-indazol-5-yl]-amine], the IC50 is < 0.1 µM at JAK2 and 0.1 to 1 µM at ALK.
